Reference: ChEMBL document CHEMBL6177936, “Stachydrine, a pyrrole alkaloid with promising therapeutic potential against metabolic syndrome and associated organ dysfunction” (RSC Med Chem, 2024)

What was measured:
[1] = Cmax in Wistar rat at 166.3 mg/kg, po; format: ADME, organism-based; details: in vivo
[2] = Half life in Wistar rat at 166.3 mg/kg, po; format: ADME, organism-based; details: in vivo
[3] = MRT (0 to infinity) in Wistar rat at 166.3 mg/kg, po; format: ADME, organism-based; details: in vivo
[4] = AUC (0 to infinity) in Wistar rat at 166.3 mg/kg, po; format: ADME, organism-based; details: in vivo
[5] = Tmax in Wistar rat at 166.3 mg/kg, po; format: ADME, organism-based; details: in vivo
[6] = AUC (0 to infinity) in Sprague-Dawley rat at 9.86 mg/kg, po by UPLC-MS/MS analysis; format: ADME, organism-based; details: in vivo
[7] = MRT (0 to infinity) in Sprague-Dawley rat at 9.86 mg/kg, po by UPLC-MS/MS analysis; format: ADME, organism-based; details: in vivo
[8] = Cmax in Sprague-Dawley rat at 9.86 mg/kg, po by UPLC-MS/MS analysis; format: ADME, organism-based; details: in vivo
[9] = Half life in Sprague-Dawley rat at 9.86 mg/kg, po by UPLC-MS/MS analysis; format: ADME, organism-based; details: in vivo
[10] = Tmax in Sprague-Dawley rat at 9.86 mg/kg, po by UPLC-MS/MS analysis; format: ADME, organism-based; details: in vivo
[11] = Cmax in CSBS-PD induced Sprague-Dawley rat at 15.28 mg/kg, po incubated for 24 hrs by LC-MS/MS analysis; format: ADME, organism-based; details: in vivo
[12] = Half life in CSBS-PD induced Sprague-Dawley rat at 15.28 mg/kg, po incubated for 24 hrs by LC-MS/MS analysis; format: ADME, organism-based; details: in vivo
[13] = Tmax in CSBS-PD induced Sprague-Dawley rat at 15.28 mg/kg, po incubated for 24 hrs by LC-MS/MS analysis; format: ADME, organism-based; details: in vivo
[14] = MRT(infinity) in CSBS-PD induced Sprague-Dawley rat at 15.28 mg/kg, po incubated for 24 hrs by LC-MS/MS analysis; format: ADME, organism-based; details: in vivo
[15] = AUC(infinity) in CSBS-PD induced Sprague-Dawley rat at 15.28 mg/kg, po incubated for 24 hrs by LC-MS/MS analysis; format: ADME, organism-based; details: in vivo
[16] = AUC(0 to infinity) in KYDS rat at 1 g/Kg, IG by LC-MS/MS analysis; format: ADME; details: in vivo, po, 1000 mg/kg
[17] = Half life in KYDS rat at 1 g/Kg, IG by LC-MS/MS analysis; format: ADME; details: in vivo, po, 1000 mg/kg
[18] = Tmax in KYDS rat at 1 g/Kg, IG by LC-MS/MS analysis; format: ADME; details: in vivo, po, 1000 mg/kg
[19] = Cmax in KYDS rat at 1 g/Kg, IG by LC-MS/MS analysis; format: ADME; details: in vivo, po, 1000 mg/kg
[20] = MRT (0 to infinity) in KYDS rat at 1 g/Kg, IG by LC-MS/MS analysis; format: ADME; details: in vivo, po, 1000 mg/kg
[21] = Apparent oral clearance in KYDS rat at 1 g/Kg, IG by LC-MS/MS analysis; format: ADME; details: in vivo, 1000 mg/kg
[22] = AUC (0 to infinity) in Wistar rat at 10 mg/kg, iv measured for 24 hrs by LC-MS/MS analysis; format: ADME, organism-based; details: in vivo
[23] = Cmax in Wistar rat at 10 mg/kg, iv measured for 24 hrs by LC-MS/MS analysis; format: ADME, organism-based; details: in vivo
[24] = Clearance in Wistar rat at 10 mg/kg, iv measured for 24 hrs by LC-MS/MS analysis; format: ADME, organism-based; details: in vivo
[25] = Half life in Sprague-Dawley rat at 15.28 mg/kg, po incubated for 24 hrs by LC-MS/MS analysis; format: ADME, organism-based; details: in vivo

Cmax [1]: 1610 ng/mL
half-life [2]: 1.64 h
MRT inf [3]: 1.67 h
AUC(0-inf) [4]: 2900 ng·h/mL
Tmax [5]: 0.75 h
AUC(0-inf) [6]: 2800 ng·h/mL
MRT inf [7]: 4.44 h
Cmax [8]: 673 ng/mL
half-life [9]: 3.79 h
Tmax [10]: 1.5 h
Cmax [11]: 14000 ng/mL
half-life [12]: 5.51 h
Tmax [13]: 2.83 h
MRT inf [14]: 9.97 h
AUC [15]: 99240 ng·h/mL
AUC [16]: 1279.31 µg/L/h
half-life [17]: 6.59 h
Tmax [18]: 1.08 h
Cmax [19]: 135 ng/mL
MRT inf [20]: 9.21 h
CL/F [21]: 1 mL/min/kg
AUC [22]: 12026.7 h/ng/mL
Cmax [23]: 6400 ng/mL
clearance [24]: 15.5 mL/min/kg
half-life [25]: 3.89 h
SMILES: C[N+]1(C)CCC[C@H]1C(=O)[O-]
